Results: PMC8744458 (Beilstein Journal of Organic Chemistry, 2022)
Several values for one entry are separate records, joined by “and”; a condition that tells them apart may be missing. Equal entries are not always repeated. Entries after “also recorded” stand apart in the source; their conditions may differ. Positions of bridges follow the written chain, without caps; N, C: chain ends. Non-standard residues stand in square brackets, D forms with d. Residues, ends and D or L forms follow the SMILES beside them. No end group written: not given here. *: point of attachment. FITC = O=C1OC2(c3ccc(O)cc3Oc3cc(O)ccc32)c2ccc(NC(=S)*)cc21; S5 = C=CCCC[C@](C)(N)C(=O)O

T1: β-catenin (Homo sapiens, UniProt P35222)
T1 construct: expression and purification of full-length β-catenin; His tag with TEV site (inferred from the pET28a-TEV vector name and Ni-NTA purification); host or cells: E. coli BL21(DE3)
T1 sequence (P35222 1-781): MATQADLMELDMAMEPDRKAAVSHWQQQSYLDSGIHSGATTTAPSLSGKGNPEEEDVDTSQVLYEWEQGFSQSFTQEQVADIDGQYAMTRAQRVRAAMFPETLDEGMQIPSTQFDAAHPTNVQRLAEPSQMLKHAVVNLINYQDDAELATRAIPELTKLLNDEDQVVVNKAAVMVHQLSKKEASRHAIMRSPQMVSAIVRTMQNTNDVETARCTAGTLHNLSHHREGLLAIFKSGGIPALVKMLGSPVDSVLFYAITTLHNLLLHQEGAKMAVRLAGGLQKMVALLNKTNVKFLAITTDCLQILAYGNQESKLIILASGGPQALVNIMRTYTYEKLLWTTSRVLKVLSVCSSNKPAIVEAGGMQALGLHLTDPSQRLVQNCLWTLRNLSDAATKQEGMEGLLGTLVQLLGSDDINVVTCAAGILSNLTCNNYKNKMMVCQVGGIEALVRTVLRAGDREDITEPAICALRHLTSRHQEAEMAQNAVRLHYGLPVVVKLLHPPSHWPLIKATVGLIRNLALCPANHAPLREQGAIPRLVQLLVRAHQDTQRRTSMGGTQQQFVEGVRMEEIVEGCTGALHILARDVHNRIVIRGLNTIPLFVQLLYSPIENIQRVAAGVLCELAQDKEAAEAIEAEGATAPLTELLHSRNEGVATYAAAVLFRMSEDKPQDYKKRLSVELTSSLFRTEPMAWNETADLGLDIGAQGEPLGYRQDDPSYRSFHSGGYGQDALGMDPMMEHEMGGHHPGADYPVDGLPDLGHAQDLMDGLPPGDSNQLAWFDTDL

T2: β-catenin (Homo sapiens, UniProt P35222)
T2 chain: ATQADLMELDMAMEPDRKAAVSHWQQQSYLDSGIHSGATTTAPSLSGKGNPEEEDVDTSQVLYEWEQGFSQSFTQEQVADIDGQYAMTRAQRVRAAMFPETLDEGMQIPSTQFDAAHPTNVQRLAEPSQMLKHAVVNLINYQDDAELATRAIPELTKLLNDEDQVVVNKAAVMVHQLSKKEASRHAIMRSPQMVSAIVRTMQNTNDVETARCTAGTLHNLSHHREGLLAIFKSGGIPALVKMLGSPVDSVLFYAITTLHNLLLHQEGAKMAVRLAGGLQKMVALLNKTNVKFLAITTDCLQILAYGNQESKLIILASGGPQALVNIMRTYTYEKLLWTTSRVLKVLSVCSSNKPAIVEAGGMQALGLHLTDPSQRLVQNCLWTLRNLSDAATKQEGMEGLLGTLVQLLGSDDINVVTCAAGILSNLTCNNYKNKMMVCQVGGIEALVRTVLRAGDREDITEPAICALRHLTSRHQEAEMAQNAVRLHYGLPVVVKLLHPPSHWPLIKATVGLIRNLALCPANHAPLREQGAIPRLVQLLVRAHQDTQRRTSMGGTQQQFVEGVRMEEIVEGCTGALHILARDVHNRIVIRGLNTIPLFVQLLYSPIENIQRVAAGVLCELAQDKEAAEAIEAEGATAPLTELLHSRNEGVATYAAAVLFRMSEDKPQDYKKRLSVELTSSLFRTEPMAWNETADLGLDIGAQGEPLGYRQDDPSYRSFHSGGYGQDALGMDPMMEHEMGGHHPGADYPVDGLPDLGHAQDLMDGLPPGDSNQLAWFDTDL


How the values were obtained:
[1] = target: proteinase K (Parengyodontium album, UniProt P06873); test: Proteinase K stability assay; type: in vitro ADME; settings: 0.5 mM peptide, 2.5 µg mL−1 proteinase K, Na2HPO4 buffer 100 mM pH 7.4 (with DMSO from stock), 25 °C, 120 min; samples at 0, 10, 20, 30, 60, 120 min; LC-MS at 280 nm
Description: Proteinase K stability assays
The assay was performed using a modified protocol.[11] A 10 mM peptide stock solution was prepared in a mixture of Na2HPO4 buffer (100 mM, pH 7.4) and DMSO (9:1). The peptide stock solution (25 µL) was diluted with more Na 2HPO4 buffer (450 µL) and thoroughly mixed.
Proteolytic digestion was started by addition of a solution of Proteinase K ( 50 µg mL−1, activity 36.9 mAnsonU mg−1) in Na2HPO4 buffer (25 µL) and incubated for 120 min at 25 °C (resulting assay concentrations 0.5 mM peptide and 2.5 µg mL−1 proteinase K). For LC-MS analysis, a 50 µL sample was diluted with 50 µL of methanol containing 0.1% TFA (v/v) and spun down at […]
Reaction monitoring via LC-MS
Figure S8: Reaction monitoring via LC-MS at λ = 280 nm. A) Linear Peptide P6, samples were taken […]
at t = 0, 10, 20, 30, 60 and 120 min. […]
fragment Ac-ENPEWILDKHVQ-OH eluting at exactly the same retention time than peptide P6 (see mass spectra below at reaction times 0 and 120 min). For fragment assignments, see mass spectra below. B) SMC stapled peptide P5, samples were taken at t = 0, 10, 20, 30, 60 and 120 min. Compared to linear […]

[2] = not given; remark: listed apart in the source
[3] = not given; remark: listed apart in the source
[4] = target: T1, β-catenin; test: Competitive fluorescence polarisation assay; type: binding; settings: unlabelled peptide titrated against tracer peptide fStAx-3 (10 nM final), β-catenin 3 µM final; FP buffer 1× PBS with 0.05% Tween20, pH 7.4; 4 °C, 1 h; biological duplicate and technical triplicate
Description: Figure S6: Direct titration curve of fluorescence polarisation assay of FITC-labelled AxWt (fAxWt) and FITC-labelled RCM-stapled peptide StAx-3 (fStAx-3). Dissociation constants were determined to be Kd […]
competitive fluorescence polarisation assay (see below).
Competitive fluorescence polarisation assay
A stock solution of the FITC-labelled peptide in DMSO (20 µM) was diluted to 40 nM in FP buffer (1× PBS with 0.05% Tween20, pH 7.4). A β-Catenin stock solution with a concentration of 6 µM was prepared in FP buffer. Stock solutions of non-labelled peptides (1 mM) in DMSO were serially diluted (2.5-fold) in FP buffer. […]
Fluorescence polarisation was measured using a Tecan Spark 10M with λex = 485/20 nm and […]. Each sample was measured as biological duplicate and technical triplicate. […]
The equation used for Kd determination of unlabeled peptides is shown below with r as anisotropy, r0 as anisotropy of the free peptide, rb as anisotropy of the β-Catenin:FITC-labelled tracer peptide, Kd2 as dissociation constant between the non-labelled ligand and the protein, [L]t as total non-labelled ligand concentration and [L]st as total FITC-labelled peptide concentration. Kd1 is the apparent Kd that was determined in direct fluorescence polari sation assays for the labelled-tracer peptide. […]
fluorescence polarisation assay). […]

[5] = CD spectroscopy, calculated content of α-helix; type: physicochemical; settings: c = 100 µM in water, 20 °C, from MRE at 222 nm
Description: Figure 1 Analysis of the secondary structure by circular dichroism: CD spectra of both isomers of stapled peptide P5 (P5.1 and P5.2) and linear references (aAxWt, P6) (c = 100 µM) at 20 °C in water.
Table S1: Calculated contents of α-helix.
Peptide θ222 [mdeg] [θ]222 [deg cm2 dmol-1] a) MRE [deg cm2 dmol-1] b) α-Helix content [%]
a) [θ] = θ / (c * 10 * l) with c = 10-4 mol/L, l = 0.1 cm; b) MRE = [θ] / n; c) in brackets literature values for
FITC-labelled analogues, ref: Grossmann, T. N.; Yeh, J. T.-H.; Bowman, B. R.; Chu, Q.; Moellering, R.
For TFE titration experiments, peptide solutions in a mixture of TFE/H2O 4:1 were additionally
Reference peptides (linear and RCM stapled peptides)
Figure S2: CD spectra of reference peptides P6, aAxWt and aStAx-3, c = 100 µM in H2O. […]

[6] = target: T2, β-catenin; test: direct fluorescence polarisation
[7] = target: T2, β-catenin; test: competitive fluorescence polarisation

Sequence of proteinase K (P06873 106-384, species assumed): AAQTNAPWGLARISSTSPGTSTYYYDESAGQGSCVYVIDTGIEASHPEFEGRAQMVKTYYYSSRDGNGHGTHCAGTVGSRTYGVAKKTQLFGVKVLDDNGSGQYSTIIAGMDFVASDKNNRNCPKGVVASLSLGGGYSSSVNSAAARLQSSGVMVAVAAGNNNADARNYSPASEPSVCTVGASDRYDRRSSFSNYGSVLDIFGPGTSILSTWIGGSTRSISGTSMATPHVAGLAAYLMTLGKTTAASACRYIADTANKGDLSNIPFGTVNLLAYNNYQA

Kd [6] [nM] | Kd [7] [nM] | Molecule | Stability against proteinase K digestion (cleavage sites/fragments) [1] | θ222 | MRE (deg cm2 dmol-1) [2] | [θ]222 (deg cm2 dmol-1) [3] | Kd [4] [nM] | α-Helix content calculated from CD spectra [5] [%]
 |  | CC[C@H](C)[C@@H]1NC(=O)[C@@H](NC(=O)[C@H](CCC(=O)O)NC(=O)[C@@H]2CCCN2C(=O)[C@H](CC(N)=O)NC(=O)[C@H](CCC(=O)O)NC(C)=O)Cc2c[nH]c3c(cccc23)-c2ccc(cc2)CCC(=O)NCCCC[C@@H](C(=O)N[C@@H](Cc2c[nH]cn2)C(=O)N[C@H](C(=O)N[C@@H](CCC(N)=O)C(=O)N[C@@H](CCCNC(=N)N)C(=O)N[C@H](C(=O)N[C@@H](CCSC)C(N)=O)C(C)C)C(C)C)NC(=O)[C@H](CC(=O)O)NC(=O)[C@H](CC(C)C)NC1=O [P5] | two of three cleaving sites are blocked; also recorded: allows access to only one of the three cleavage sites; also recorded: higher stability | -7.04 mdeg and -10 mdeg | -4690 and -6680 | -70400 and -100000 |  | 
 |  | CC[C@H](C)[C@@H]1NC(=O)[C@@](C)(NC(=O)[C@H](CCC(=O)O)NC(=O)[C@@H]2CCCN2C(=O)[C@H](CC(N)=O)NC(=O)[C@H](CCC(=O)O)NC(C)=O)CCCC=CCCC[C@@](C)(C(=O)N[C@@H](Cc2c[nH]cn2)C(=O)N[C@H](C(=O)N[C@@H](CCC(N)=O)C(=O)N[C@@H](CCCNC(=N)N)C(=O)N[C@H](C(=O)N[C@@H](CCSC)C(N)=O)C(C)C)C(C)C)NC(=O)[C@H](CC(=O)O)NC(=O)[C@H](CC(C)C)NC1=O [aStAx-3, reference compound] (Ac-ENPE[S5]ILD[S5]HVQRVM-NH2; staple 5-9) |  | -16.2 mdeg | -10800 | -162000 | 49 ± 26 | 
 |  | Ac-ENPEWILDKHVQRVM-NH2 [P6] | degraded in three fragments; also recorded: cleaved within a period of 120 min to give three fragments | -5.94 mdeg | -3960 | -59400 | 1240 ± 162 | 13
63 |  | {FITC}-PESILDEHVQRVLRT (staple (positions not given here); not fully specified (residues 5, 9, bridges); also: all-hydrocarbon staple at 471/475 (positions 5, 9), stapling residues not named) [fStAx-3 (FITC-labelled RCM-stapled axin CBD peptide) 467-481] |  |  |  |  |  | 
 | 1450 | PESILDEHVQRVLRT [aAxWt (axin CBD peptide) 467-481] |  |  |  |  |  | 
